{"source": "patent US20250129054A1", "about": "(Terran Biosciences Inc., priority 2022, published 2025)", "key": {"[1]": {"system": "rat elevated zero maze model of anxiety", "experiment": "Rat elevated zero maze model of anxiety (% time on open areas, stretched attend postures)", "assay_type": "in vivo, Sprague-Dawley rats", "text": "The rat zero-maze model is a refined alternative to the plus-maze, the most widely used animal model of anxiety, and consists of an elevated annular platform, divided equally into four quadrants. Two opposite quadrants are enclosed by Perspex walls on both the inner and the outer edges of the platform, while the remaining two opposite quadrants are open being enclosed only by a Perspex “lip”. Animals will show a preference for the closed areas, and avoidance of the open sections is assumed to stem from a rodent's natural aversion to open, exposed spaces. The primary index of anxiety, which reflect changes in open arm preference, is the percentage of time spent on the open areas. A reduction in the amount of activity on the open areas is considered to reflect an increase in anxiety. Other, ethologically-based behaviours are also assessed as indices of anxiety. One of the most important is stretched attend postures (SAP) from closed to open quadrants. […] Shepherd, J K; et al., (1994) Behavioural and pharmacological validation of the elevated “zero-maze” as an animal model of anxiety. Psychopharmacol., 116:56-64.\nMale Sprague-Dawley 200-250 g (Envigo UK) rats were used. Animals were group-housed (5 per cage; cage size: 40×40×20 cm) in a temperature-controlled environment (22±2° C.), under a 12 h light-dark cycle (lights on: 08:00 hours) for one week prior to testing. Food and water were freely available. Number of animals per group=5. Animals were moved into the experimental room 16-24 hours before testing.\nThe elevated 0-maze comprises a black Perspex annular platform (105 cm diameter, 10 cm width) elevated to 65 cm above ground level, divided equally into four quadrants. Two opposite quadrants are enclosed by clear red Perspex walls (27 cm high) on both the inner and outer edges of the platform, while the remaining two opposite quadrants are surrounded only by a Perspex “lip” (1 cm high) which serves as a tactile guide to animals on these open areas.\nSubjects were weighed and tail marked before being injected. After a specified pre-treatment time, subjects were placed in a closed quadrant and a 5-min test period were recorded on videotape for subsequent analysis. The maze were cleaned with 5% methanol/water solution and dried thoroughly between test sessions. Behavioural measures comprise percentage time spent on the open areas (% TO) and frequency of stretched attend postures (SAP) from closed to open quadrants. Since the control groups were all treated identically with the same vehicle these were combined to increase power. The Chlordiazepoxide groups were also treated identically with the same dose so these were also combined to increase power. Animals are scored as being in the open area when all four paws were in an open quadrant and in the closed area only when all four paws have passed over the open-closed divide. All testing were carried out between 9.00 and 16.00 hours.\nFor each study, a 1-way ANOVA was conducted across vehicle, CDP, and drug treatment groups. Each group was compared to the vehicle group and a p-value for treatment determined by Fishers Least Significant Difference (LSD) test. This analysis was performed in GraphPad Prism (Version 9).\nIntraperitoneal (IP): Racemic methylone HCl was formulated in Vehicle 1 (Saline) for injection to concentrations of 1, 3 and 6 mg/mL to provide doses of 5, 15 and 30 mg/kg when administered ip in 5 mL/kg dosing volumes.\nIntraperitoneal (IP): S-methylone HCl was formulated in Vehicle 1 (Saline) for injection to concentrations of 0.5, 1, 1.5, 3 and 6 mg/mL to provide doses of 2.5, 5, 7.5, 15 and 30 mg/kg when administered ip in 5 mL/kg dosing volumes.\nIntraperitoneal (IP): R-methylone HCl was formulated in Vehicle 1 (Saline) for injection to concentrations of 1, 3 and 6 mg/mL to provide doses of 5, 15 and 30 mg/kg when administered ip in 5 mL/kg dosing volumes. […]"}, "[2]": {"system": "post-traumatic stress disorder (PTSD)", "experiment": "Double-blind, randomized, placebo-controlled clinical trial of methylone-assisted psychotherapy in PTSD", "assay_type": "in vivo, human", "details": "at Study Conclusion", "protocol": "A multicenter, randomized, double-blind, placebo-controlled trial is conducted to assess the efficacy and safety of methylone-assisted psychotherapy versus psychotherapy with placebo control in participants diagnosed with at least moderate post-traumatic stress disorder (PTSD).\nThis multicenter, randomized, double-blind, placebo-controlled trial is conducted at various sites in the United States with IRB approval from each study site. A flexible dose of methylone hydrochloride salt or placebo, followed by a supplemental half-dose unless contraindicated by patient's previous response or medical history, is also administered during the Treatment Period with psychotherapy in at least 3 blinded monthly Experimental Sessions. The Supplemental Dose extends the duration of drug effects on the participants during an Experimental Session. Methylone test groups are further subdivided into specific groups receiving only racemic methylone hydrochloride salt, S-methylone hydrochloride salt, or R-methylone hydrochloride salt. An optional Risk Evaluation and Mitigation Strategy (REMS) Protocol may be implemented for the racemic methylone, S-methylone, and placebo-groups. The Treatment Period lasts for approximately 12 weeks. During the Treatment Period, each Experimental Session is followed by three Intervening Sessions of non-drug psychotherapy. Each Experimental Session involves an overnight stay. The Primary Outcome measure, the change in Clinician Administered PTSD Scale for DSM-5 (CAPS-5), is determined by a blinded Independent Rater (IR) pool multiple times throughout the study. The study consists of separate periods for each participant. Initially, prospective participants undergo a Screening Period involving an initial eligibility assessment, a medical history intake, informed consent, and enrollment of eligible participants. Next, a Preparation Period is undertaken for enrolled participants involving medication tapering and clinical baseline assessments to confirm each participant meets enrollment criteria. As part of the Preparation Period, a detailed assessment of co-morbidities to PTSD is recorded. Participants may remain on prescribed courses of selective serotonin reuptake inhibitor (SSRI) or serotonin and norepinephrine reuptake inhibitor (SNRI) treatment. Dosages and/or frequency of administration of a prescribed SSRI or SNRI may be adjusted to fit within study parameters. Participants may be required to taper a prescribed course of medication in order to maintain eligibility within the study. The Treatment Period consists of three monthly Experimental Sessions and associated Intervening Sessions of integrative behavioral psychotherapy. The Treatment Period lasts approximately 12 weeks. Following the Treatment Period is a Follow-up Period and Study Conclusion. During the Follow-up Period and Study Conclusion, participants complete 4 weeks with no study visits, followed by a Study Conclusion visit.\nThis study compares the effects of three blinded Experimental Sessions of psychotherapy in combination with flexible doses of methylone or placebo administered as described below. Non-drug preparatory and intervening psychotherapy sessions are also included. Patient's weight is determined for dosage calculation. Initial dose is 100 mg unless this will result in a dosage of less than 1.5 mg/kg of patient weight. Initial dose thereby adjusted upward in 25 mg increments to deliver the lowest dose possible of at least 1.5 mg/kg of patient weight. Initial dose for Experimental Session 2 and 3 is cumulative dose calculated by adding the initial dose plus REMS protocol dose used the previous Experimental Session for each patient.\nRandomization occurs prior to the initiation of Experimental Session 1. Each participant is provided the next randomized number in a sequence by a blinded study monitor. […]"}, "[3]": {"details": "30 mg/kg ip, 30 min pretreatment, vs vehicle and chlordiazepoxide 6 mg/kg, male SD rats"}, "[4]": {"details": "specific (sufficient) doses ip, compared with chlordiazepoxide 6 mg/kg"}, "[5]": {"details": "compared to placebo-treated controls"}}, "data": [{"smiles": "CNC(C)C(=O)c1ccc2c(c1)OCO2", "note": "(racemic) [racemic methylone]", "values": [{"measurement": "time spent in the open arms", "setting": "[1]; 5 mg/kg ip, 30 min pretreatment, vs vehicle, male SD rats", "result": "decrease in time spent in the open arms vs placebo"}, {"measurement": "frequency of SAPs", "setting": "[1]; 15 mg/kg ip, 30 min pretreatment, male SD rats", "result": "dose dependent decrease in SAPs"}, {"measurement": "time spent in the open arms", "setting": "[1]; 15 mg/kg ip, 30 min pretreatment, vs vehicle, male SD rats", "result": "no difference from placebo"}, {"measurement": "frequency of SAPs", "setting": "[1]; [3]", "result": "decrease in SAPs"}, {"measurement": "time spent in the open arms", "setting": "[1]; [3]", "result": "significant decrease in time spent in the open arms"}, {"measurement": "anxiogenic effect", "setting": "[1]; across the doses tested, ip, male SD rats", "result": "show anxiogenic effects at lower doses"}, {"measurement": "frequency of SAPs", "setting": "[1]; [4]", "result": "decreased the frequency of SAPs as effectively as the benzodiazepine chlordiazepoxide"}, {"measurement": "time in the open arms", "setting": "[1]; [4]", "result": "increase time in the open arms"}, {"measurement": "daytime sleepiness as measured by ESS", "setting": "[2]", "result": "significant improvement in lessening daytime sleepiness"}, {"measurement": "clinician-rated functional impairment score as measured by SDS", "setting": "[2]; [5]", "result": "significant improvement"}, {"measurement": "depression as measured by HAM-D", "setting": "[2]; [5]", "result": "significant improvement"}, {"measurement": "change in CAPS-5 assessment", "setting": "[2]; with psychotherapy, compared to the placebo group, PTSD participants", "result": "significant mean reduction"}]}]}
